US4076725A, “Derivatives of streptovaricin ansamycins” (University of Illinois Foundation, priority 1976, dated 1978)
Values after ≈ are worked out from the molar mass of the structure shown.

Columns and labels:
[1] = test system: B. subtilis; test: B. subtilis bacterial inhibition (paper disc, agar plate); conditions: Bacillus subtilis, read-out: Zone (mm.) inhibition
Procedure: The assay for B. subtilis bacterial inhibition was obtained on plates with B. subtilis UC 564 spores in agar with the following composition per liter:
After autoclaving, 10 ml. of 20% glucose was added. The seeding rate was approximately 10^9 spores per liter. Test solutions were applied to 1/2-inch paper discs (Schleicher & Schuell 740E) with 0.08 ml. per disc.

[2] = target: E. coli RNA polymerase (Escherichia coli, UniProt P0A8V2); test: Bacterial RNA polymerase inhibition; type: biochemical
Chain of E. coli RNA polymerase (P0A8V2 whole entry): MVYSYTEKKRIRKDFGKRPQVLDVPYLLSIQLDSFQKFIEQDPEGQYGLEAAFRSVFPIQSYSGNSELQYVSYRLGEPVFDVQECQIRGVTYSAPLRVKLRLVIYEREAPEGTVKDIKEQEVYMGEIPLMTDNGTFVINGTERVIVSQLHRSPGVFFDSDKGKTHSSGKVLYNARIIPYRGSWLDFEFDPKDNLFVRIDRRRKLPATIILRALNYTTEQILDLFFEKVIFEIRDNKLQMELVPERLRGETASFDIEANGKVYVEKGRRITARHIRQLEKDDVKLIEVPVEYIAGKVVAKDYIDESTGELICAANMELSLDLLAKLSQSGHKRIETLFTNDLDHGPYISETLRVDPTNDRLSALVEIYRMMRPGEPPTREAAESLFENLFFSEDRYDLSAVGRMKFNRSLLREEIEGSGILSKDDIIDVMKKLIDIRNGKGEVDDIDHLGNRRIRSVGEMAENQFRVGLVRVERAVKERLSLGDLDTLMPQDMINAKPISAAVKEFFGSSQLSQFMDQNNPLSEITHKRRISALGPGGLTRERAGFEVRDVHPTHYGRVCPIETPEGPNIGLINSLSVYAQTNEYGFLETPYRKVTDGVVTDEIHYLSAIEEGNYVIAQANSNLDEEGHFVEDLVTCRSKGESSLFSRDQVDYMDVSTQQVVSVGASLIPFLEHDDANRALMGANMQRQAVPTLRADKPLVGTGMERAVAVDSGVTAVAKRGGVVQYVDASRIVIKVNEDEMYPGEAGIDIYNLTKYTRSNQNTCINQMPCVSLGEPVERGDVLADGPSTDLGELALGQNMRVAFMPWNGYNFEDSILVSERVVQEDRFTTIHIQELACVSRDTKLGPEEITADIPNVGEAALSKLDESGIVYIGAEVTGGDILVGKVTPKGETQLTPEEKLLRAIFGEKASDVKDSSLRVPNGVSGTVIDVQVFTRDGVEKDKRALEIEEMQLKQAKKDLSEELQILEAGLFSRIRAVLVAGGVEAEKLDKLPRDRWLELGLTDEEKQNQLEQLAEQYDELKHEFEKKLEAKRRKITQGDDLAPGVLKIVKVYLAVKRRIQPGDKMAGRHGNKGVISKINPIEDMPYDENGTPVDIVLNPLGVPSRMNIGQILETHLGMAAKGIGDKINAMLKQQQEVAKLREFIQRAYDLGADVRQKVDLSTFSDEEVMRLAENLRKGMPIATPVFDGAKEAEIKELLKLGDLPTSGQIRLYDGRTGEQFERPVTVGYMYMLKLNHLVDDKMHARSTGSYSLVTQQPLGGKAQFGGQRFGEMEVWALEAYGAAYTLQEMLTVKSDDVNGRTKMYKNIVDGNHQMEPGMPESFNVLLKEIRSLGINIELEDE
Chain of E. coli RNA polymerase (P0A8T7 whole entry partner): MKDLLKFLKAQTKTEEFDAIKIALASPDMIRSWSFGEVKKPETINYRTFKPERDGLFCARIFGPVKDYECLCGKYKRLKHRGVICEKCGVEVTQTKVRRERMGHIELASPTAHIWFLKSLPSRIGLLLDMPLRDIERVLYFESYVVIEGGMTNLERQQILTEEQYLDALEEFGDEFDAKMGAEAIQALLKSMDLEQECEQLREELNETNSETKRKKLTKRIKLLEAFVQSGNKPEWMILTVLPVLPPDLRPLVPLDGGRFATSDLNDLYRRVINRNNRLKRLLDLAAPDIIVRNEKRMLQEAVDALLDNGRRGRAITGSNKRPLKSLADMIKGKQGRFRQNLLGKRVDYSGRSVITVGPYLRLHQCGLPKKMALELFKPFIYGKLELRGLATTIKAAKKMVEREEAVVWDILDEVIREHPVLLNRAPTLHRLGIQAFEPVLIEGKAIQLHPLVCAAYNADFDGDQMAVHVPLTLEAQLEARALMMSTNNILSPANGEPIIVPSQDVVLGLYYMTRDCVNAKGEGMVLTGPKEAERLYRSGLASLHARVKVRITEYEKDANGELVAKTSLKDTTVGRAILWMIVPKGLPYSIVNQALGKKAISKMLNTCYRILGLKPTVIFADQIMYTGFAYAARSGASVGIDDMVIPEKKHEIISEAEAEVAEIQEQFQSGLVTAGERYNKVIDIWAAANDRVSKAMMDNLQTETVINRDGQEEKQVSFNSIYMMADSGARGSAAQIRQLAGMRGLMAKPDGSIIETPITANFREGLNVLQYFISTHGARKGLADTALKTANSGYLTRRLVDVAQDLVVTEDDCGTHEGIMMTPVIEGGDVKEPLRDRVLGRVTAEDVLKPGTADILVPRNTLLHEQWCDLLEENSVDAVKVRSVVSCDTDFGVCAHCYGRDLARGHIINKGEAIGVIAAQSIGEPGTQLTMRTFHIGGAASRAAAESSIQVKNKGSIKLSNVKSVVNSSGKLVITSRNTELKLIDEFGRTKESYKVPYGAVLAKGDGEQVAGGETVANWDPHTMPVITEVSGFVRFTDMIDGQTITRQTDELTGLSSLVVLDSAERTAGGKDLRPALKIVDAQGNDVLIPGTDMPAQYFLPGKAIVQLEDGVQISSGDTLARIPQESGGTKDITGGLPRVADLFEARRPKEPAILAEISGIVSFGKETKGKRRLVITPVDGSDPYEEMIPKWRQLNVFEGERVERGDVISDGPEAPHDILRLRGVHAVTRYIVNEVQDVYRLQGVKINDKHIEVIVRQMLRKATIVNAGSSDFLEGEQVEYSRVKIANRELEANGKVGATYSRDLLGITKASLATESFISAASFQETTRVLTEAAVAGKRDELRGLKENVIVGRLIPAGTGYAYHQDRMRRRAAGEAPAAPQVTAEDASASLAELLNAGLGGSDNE
Chain of E. coli RNA polymerase (P0A7Z4 whole entry partner): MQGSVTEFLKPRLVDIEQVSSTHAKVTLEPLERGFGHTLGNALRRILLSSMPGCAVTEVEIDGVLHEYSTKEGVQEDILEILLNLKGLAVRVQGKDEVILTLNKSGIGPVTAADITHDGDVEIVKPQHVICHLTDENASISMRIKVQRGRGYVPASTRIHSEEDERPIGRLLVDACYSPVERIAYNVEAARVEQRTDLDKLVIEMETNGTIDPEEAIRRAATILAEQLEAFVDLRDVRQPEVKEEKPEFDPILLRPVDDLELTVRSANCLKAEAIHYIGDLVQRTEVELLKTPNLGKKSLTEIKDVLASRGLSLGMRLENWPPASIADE
Chain of E. coli RNA polymerase (P0A800 2-91 partner limits assumed): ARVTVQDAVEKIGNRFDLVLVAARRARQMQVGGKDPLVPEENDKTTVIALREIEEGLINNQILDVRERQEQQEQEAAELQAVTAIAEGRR
Procedure: The assay for bacterial RNA polymerase followed the procedure of Reusser (J. Bacterial., 105, 580 (1971)). Assay mixtures were prepared containing in a total volume of 0.25 ml.: Tris-hydrochloride buffer, pH 7.9, 5 μmoles; MgCl2, 1 μmole; mercaptoethanol, 3 μmoles; MnCl2, 0.25 μmole; guanosine triphosphate, cytidine triphosphate, uridine triphosphate, 0.1 μmole each; adenosine triphosphate 8-14C, 0.1 μmole containing 0.05 μCi; dAT, 0.2 units; polymerase, ~35 μg. The reaction mixtures were incubated at 30° C for 15 min.

[3] = test system: reverse transcriptase (RNA-directed DNA polymerase); test: Reverse transcriptase (RNA-directed DNA polymerase) inhibition; type: biochemical; conditions: concentration not given
Source text: The assay and work-up conditions for reverse transcriptase analysis were essentially those described by Brockman, et al., (Nature, 230, 249 (1971)), except for eliminating the phosphate from the washing solution (10% trichloroacetic acid).

[4] = test system: S. lutea; test: S. lutea bacterial inhibition (MIC, broth dilution); type: cell-based; conditions: Micrococcus luteus; 37°, 16-18 hours
Procedure: The assay for S. lutea inhibition was as follows. Water-soluble preparations were dissolved in brain heart infusion broth (Difco) to 1 mg./ml. Water-insoluble preparations were dissolved (or suspended) in dimethylformamide to 10 mg./ml. and diluted with brain heart broth to 1 mg./ml. Two-fold serial dilutions were made with broth starting with 1 mg./ml. with final volumes of 01. ml. per dilution. Overnight bacterial cultures were diluted 1:20,000 with brain heart and 0.1 ml. of diluted culture was added to each dilution of antibiotic (final total volume was 0.2 ml.). This was all done in plastic microtest plates (Microtest II Tissue Culture Plate, Bioquest). The plates were incubated at 37° for 16-18 hours and the minimum inhibitory concentrations (MIC) were recorded as the smallest concentration in which no visible growth occurred.

[5] = test system: AKR cells; test: AKR growth inhibition (AKR cells in culture); type: cell-based; conditions: 37° C, 3 days, concentration not given
Procedure: The assay for inhibition of AKR cells in culture was as follows. Four ml. of cells (ca. 1×10^4 cells/ml.) were pipetted into sterilized plastic culture tubes with screw caps (16×125 mm.; Falcon Plastics, Oxnard, California). The experiment was initiated by adding 1.0 ml. of medium or drug at different concentrations and incubating at 37° C for 3 days. Cell growth was determined twice a day for 3 days. The percent inhibition was calculated from the controls (no drug).

[6] = test system: DNA-directed DNA polymerase; test: DNA-directed DNA polymerase inhibition; type: biochemical; conditions: concentration not given
Procedure: The assay and work-up conditions for DNA polymerase were essentially those described by Magee (Virology, 17, 604 (1962)). The reaction mixture contained […]: potassium phosphate (pH 7.4), 15; EDTA, 2; ATP, 0.05; Mg^++, 2.5; triphosphates of CdR, deoxyguanosine, and AdR, 0.01 each; TdR triphosphate-^3 H, 0.01 (100 mCi/mmol.); DNase-treated E. coli DNA, 0.2 mg.; and cell sonicate, 0.2 mg. protein in a total volume of 0.5 ml. After incubation at 37° C for up to 60 minutes with continual gentle shaking, the reactions were stopped by the addition of carrier DNA […] and PCA (to 0.5 N) containing 2% Celite. The pellet was washed with PCA, dissolved in 1 N NaOH, reprecipitated and washed with PCA, extracted with 0.15 ml. 0.5 N PCA (70°) for 20 minutes, and counted in 12 ml. of Diotol.

SMILES	zone of inhibition at 250 µM [1] [mm]	% inhibition ([2]; 0.1 μmole/ml.) [%]	% inhibition [3] [%]	MIC [4] [µg/mL]	% inhibition [5] [%]	% inhibition [6] [%]	% inhibition ([2]; 0.01 μmole/ml. (Streptovaricin C)) [%]
COC(=O)C(C(O)C(C)C=O)C(OC(C)=O)C(C)C(O)C(C)(O)C=C(C)C1=C2C(=C(C)C(=O)c3c(O)c(NC(=O)C(C)=CC=CC(C)=O)c(C)c(OC(C)=O)c32)OCO1 (centres unmarked) [Isostreptoval A]	16	21	7.8	80 (≈ 96.9 µM)	10.7		
COC(=O)C(C(O)C(C)C=O)C(O)C(C)C(O)C(C)(O)C=C(C)C1=C2C(=C(C)C(=O)c3c(O)c(NC(=O)C(C)=CC=CC(C)=O)c(C)c(OC(C)=O)c32)OCO1 (centres unmarked) [Isostreptoval G]		52					
CC(=O)C=CC=C(C)C(=O)Nc1c(C)c(OC(C)=O)c2c(c1O)C(=O)C(C)=C1OCOC(C(C)=CC(C)=O)=C12 [Prestreptovarone]		0	60.1			35.4	
COC(=O)C1C(OC(C)=O)C(C)C(O)OC1C(C)C(O)C(C)(O)C=CC=C(C)C(=O)Nc1c(C)c(OC(C)=O)c2c(c1O)C(=O)C(C)=C1OCOC(C(C)=CC(C)=O)=C12 (centres unmarked) [Streptoval A]	17	35	100.0	80 (≈ 96.9 µM)			
COC(=O)C1C(OC(C)=O)C(C)C(O)OC1C(C)C(O)C(C)C=CC=C(C)C(=O)Nc1c(C)c(OC(C)=O)c2c(c1O)C(=O)C(C)=C1OCOC(C(C)=CC(C)=O)=C12 (centres unmarked) [Streptoval B]			99.0				
COC(=O)C1C(OC(C)=O)C(C)C(OC(C)=O)OC1C(C)C(OC(C)=O)C(C)C=CC=C(C)C(=O)Nc1c(C)c(OC(C)=O)c2c(c1O)C(=O)C(C)=C1OCOC(C(C)=CC(C)=O)=C12 (centres unmarked) [Streptoval C Triacetate-A]			86.2				
COC(=O)C(C(OC(C)=O)C(C)C=O)C(OC(C)=O)C(C)C(OC(C)=O)C(C)C=CC=C(C)C(=O)Nc1c(C)c(OC(C)=O)c2c(c1O)C(=O)C(C)=C1OCOC(C(C)=CC(C)=O)=C12 (centres unmarked) [Streptoval C Triacetate-B]			97.3				
COC(=O)C1C(O)C(C)C(O)OC1C(C)C(O)C(C)C=CC=C(C)C(=O)Nc1c(C)c(OC(C)=O)c2c(c1O)C(=O)C(C)=C1OCOC(C(C)=CC(C)=O)=C12 (centres unmarked) [Streptoval C]	0		84.0		2.1	9.2	
COC(=O)C1C(O)C(C)C(O)OC1C(C)C(=O)C(C)C=CC=C(C)C(=O)Nc1c(C)c(OC(C)=O)c2c(c1O)C(=O)C(C)=C1OCOC(C(C)=CC(C)=O)=C12 (centres unmarked) [Streptoval E]	0	7	95.7	75 (≈ 97.9 µM)			
CC(=O)C=C(C)C1=C2C(=C(C)C(=O)c3c(O)c(NC(=O)C(C)=CC=CC(C)(O)C4OC(=O)C5C(O)C(C)C(O)OC5C4C)c(C)c(OC(C)=O)c32)OCO1 (centres unmarked) [Streptoval F]			8.3				
COC(=O)C1C(OC(C)=O)C(C)C(OC(C)=O)C(C)(O)C=CC=C(C)C(=O)Nc2c(C)c(OC(C)=O)c3c(c2O)C(=O)C(C)=C2OCOC(=C23)C(C)=CC(C)(O)C(OC(C)=O)C(C)C1OC(C)=O (centres unmarked) [Streptovaricin A Triacetate]			76.0				
COC(=O)C1C(OC(C)=O)C(C)C(OC(C)=O)C(C)C=CC=C(C)C(=O)Nc2c(C)c(OC(C)=O)c3c(c2O)C(=O)C(C)=C2OCOC(=C23)C(C)=CC(C)(O)C(OC(C)=O)C(C)C1OC(C)=O (centres unmarked) [Streptovaricin C Tetra-acetate]			80.0				
COC(=O)C1C(OC(C)=O)C(C)C(OC(C)=O)C(C)C=CC=C(C)C(=O)Nc2c(C)c(OC(C)=O)c3c(c2O)C(=O)C(C)=C2OCOC(=C23)C(C)=CC(C)(O)C(O)C(C)C1OC(C)=O (centres unmarked) [Streptovaricin C Triacetate]			79.0				
COC(=O)C1C(O)C(C)C(O)C(C)C=CC=C(C)C(=O)Nc2c(C)c(OC(C)=O)c3c(c2O)C(=O)C(C)=C2OCOC(=C23)C(C)=CC(C)(O)C(O)C(C)C1O (centres unmarked) [Streptovaricin C, reference compound]	22		47.9		8.9	0	66
CC(=O)C=C(C)C1=C2C(=C(C)C(=O)c3c(O)c(NC(=O)C(C)=O)c(C)c(OC(C)=O)c32)OCO1 [Streptovarone]	0	0	59.4		0.4	12.2	
